PMC11012124, “Synthesis of Novel Triazine-Based Chalcones and 8,9-dihydro-7H-pyrimido[4,5-b][1,4]diazepines as Potential Leads in the Search of Anticancer, Antibacterial and Antifungal Agents” (International Journal of Molecular Sciences, 2024)
Converted amounts (≈) assume the structure as drawn.

Columns and labels:
MDA-MB-435 = test: cells; conditions: Homo sapiens, MDA-MB-435, 48 h; for CC50: read-out: LC50
[1] = test system: M. tuberculosis ATCC 27294; test: Antitubercular broth microdilution MIC; format: cell-based; conditions: Mycobacterium tuberculosis; M. tuberculosis ATCC 27294 (H37Rv); read-out: Minimum inhibitory concentration (MIC)
CAKI-1 = test: cells; conditions: Homo sapiens, CAKI-1, 48 h; for CC50: read-out: LC50
OVCAR-4 = test: cells; conditions: Homo sapiens, OVCAR-4, 48 h; for CC50: read-out: LC50
[2] = Hemolytic activity, spectrophotometric; format: cell-based, human; conditions: human, human red blood cells (huRBC), 5% hematocrit, 200 μg/mL, 37 °C
DU-145 = test: cells; conditions: Homo sapiens, DU-145, 48 h; for CC50: read-out: LC50
SK-MEL-28 = test: cells; conditions: Homo sapiens, SK-MEL-28, 48 h; for CC50: read-out: LC50
K-562 = test: cells; conditions: Homo sapiens, K562, 48 h; for GI50: K-562, 48 h; for CC50: read-out: LC50
T-47D = test: cells; conditions: Homo sapiens, T47D, 48 h; for CC50: read-out: LC50
KM12 = test: cells; conditions: Homo sapiens, KM12, 48 h; for CC50: read-out: LC50
SK-MEL-2 = test: cells; conditions: Homo sapiens, SK-MEL-2, 48 h; for CC50: read-out: LC50
NCI-H522 = test: cells; conditions: Homo sapiens, NCI-H522, 48 h; for CC50: read-out: LC50
NCI/ADR-RES = test: cells; conditions: Homo sapiens, 48 h
NCI-H460 = test: cells; conditions: Homo sapiens, NCI-H460, 48 h; for CC50: read-out: LC50
OVCAR-5 = test: cells; conditions: Homo sapiens, OVCAR-5, 48 h; for CC50: read-out: LC50
[3] = test system: N. gonorrhoeae ATCC 49226; test: MIC on GC agar plates; format: cell-based, Neisseria gonorrhoeae; conditions: Neisseria gonorrhoeae, ATCC49226, read-out: MIC
Outline: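 N. gonorrhoeae (1 × 10^4 CFU) was spotted onto IsoVitaleX-supplemented (1%) GC agar containing graded compound levels. The lowest inhibitory concentration was recorded as the MIC, with oxidase testing used to verify growth, and each assay was done in duplicate on at least two separate occasions.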

IGROV1 = test: cells; conditions: Homo sapiens, IGROV-1, 48 h; for CC50: read-out: LC50
CCRF-CEM = test: cells; conditions: Homo sapiens, 48 h; for CC50: read-out: LC50
MCF7 = test: cells; conditions: Homo sapiens, MCF7, 48 h; for CC50: read-out: LC50
SK-OV-3 = test: cells; conditions: Homo sapiens, SK-OV-3, 48 h; for CC50: read-out: LC50
TK-10 = test: cells; conditions: Homo sapiens, TK-10, 48 h; for CC50: read-out: LC50
OVCAR-8 = test: cells; conditions: Homo sapiens, OVCAR-8, 48 h; for CC50: read-out: LC50
HL-60(TB) = test: cells; conditions: Homo sapiens, HL-60, 48 h; for CC50: read-out: LC50
SN12C = test: cells; conditions: Homo sapiens, 48 h; for CC50: read-out: LC50
MALME-3M = test: cells; conditions: Homo sapiens, 48 h; for CC50: read-out: LC50
SW-620 = test: cells; conditions: Homo sapiens, SW-620, 48 h; for CC50: read-out: LC50
[4] = test system: Trichophyton mentagrophytes (CCC 202-2000); test: Antifungal broth microdilution (CLSI); format: cell-based; conditions: Tm: Trichophyton mentagrophytes
Description: Several of the obtained triazine derivatives were evaluated against sensitive fungal species comprising of two yeasts (Candida albicans (ATCC 10231), Cryptococcus neoformans (ATCC 32264)), three dermatophytes (Microsporum gypseum (CCC 115), Trichophyton rubrum (CCC 134-2000), Trichophyton mentagrophytes (CCC 202-2000)), and three Aspergillus fungi ((A. [NT] 26934), A. niger (ATCC 9029), and A. flavus (ATCC 9170)). […] Broth microdilution techniques were performed in 96-well microplates according to the Reference Method for Broth Dilution Antifungal Susceptibility Testing of Yeasts, document M27-A3 [86] and of Filamentous Fungi […]-A8 [87]. […] An inoculum suspension (100 μL) was added to each well (final well volume = 200 μL). One growth control well (containing medium, inoculum, and the same amount of DMSO as used for each compound) and one sterility control well (sample, medium, and sterile water instead of inoculum) were included for each fungus tested. Microtiter plates were incubated in a dark, humid chamber at 30 °C for the time necessary for each fungus. Amphotericin B, Terbinafine, Fluconazole and Itraconazole were used as a positive control. The tests were performed in triplicate.

SR = test: cells; conditions: Homo sapiens, 48 h

CN(C)c1nc(NCCNS(=O)(=O)c2ccc(C3=Nc4c(N)nc(N)nc4NC(c4ccc(Cl)cc4)C3)cc2)nc(Nc2ccc(F)cc2)n1 (centres unmarked) [31e]
GI50 (MDA-MB-435): 5.17 µM | CC50 (MDA-MB-435): > 100 µM | MIC [1]: 1.2 µg/mL (≈ 1.67 µM) | GI50 (CAKI-1): 8.07 µM | CC50 (CAKI-1): > 100 µM | CC50 (OVCAR-4): > 100 µM | hemolysis at 24 h, 200 µg/mL [2]: 2.3% | GI50 (DU-145): > 100 µM | CC50 (DU-145): > 100 µM | GI50 (SK-MEL-28): 8.22 µM | CC50 (SK-MEL-28): > 100 µM | GI50 (K-562): 3.08 µM | CC50 (K-562): > 100 µM | GI50 (T-47D): 7.93 µM | CC50 (T-47D): > 100 µM | GI50 (KM12): 3.98 µM | CC50 (KM12): > 100 µM | GI50 (SK-MEL-2): 3.34 µM | CC50 (SK-MEL-2): 14 µM | GI50 (NCI-H522): 16 µM | CC50 (NCI-H522): > 100 µM | GI50 (NCI/ADR-RES): > 100 µM | CC50 (NCI/ADR-RES; read-out: LC50): > 100 µM | GI50 (NCI-H460): 4.49 µM | CC50 (NCI-H460): > 100 µM | GI50 (OVCAR-5): > 100 µM | CC50 (OVCAR-5): > 100 µM | MIC [3]: 0.5 µg/mL (≈ 0.696 µM) | GI50 (IGROV1): 9.96 µM | CC50 (IGROV1): > 100 µM | GI50 (CCRF-CEM): 2.92 µM | CC50 (CCRF-CEM): > 100 µM | GI50 (MCF7): 2.89 µM | CC50 (MCF7): > 100 µM | GI50 (SK-OV-3): > 100 µM | CC50 (SK-OV-3): > 100 µM | GI50 (TK-10): > 100 µM | CC50 (TK-10): > 100 µM | GI50 (OVCAR-8): > 100 µM | CC50 (OVCAR-8): > 100 µM | GI50 (HL-60(TB)): 2.72 µM | CC50 (HL-60(TB)): 13.3 µM | GI50 (SN12C): 7.37 µM | CC50 (SN12C): > 100 µM | GI50 (MALME-3M): 3.86 µM | CC50 (MALME-3M): 19.2 µM | GI50 (SW-620): 5.95 µM | CC50 (SW-620): > 100 µM

CN(C)c1nc(NCCNS(=O)(=O)c2ccc(C(=O)/C=C/c3ccc(Cl)cc3)cc2)nc(N2CCOCC2)n1 [23e]
GI50 (MDA-MB-435): 12.8 µM | CC50 (MDA-MB-435): 55.3 µM | MIC [4]: > 250 µg/mL | GI50 (CAKI-1): 11.2 µM | CC50 (CAKI-1): 54.7 µM | GI50 (OVCAR-4): 14.7 µM | CC50 (OVCAR-4): 57.2 µM | GI50 (DU-145): 17.2 µM | CC50 (DU-145): 67.3 µM | GI50 (SK-MEL-28): 15.5 µM | CC50 (SK-MEL-28): 53.9 µM | GI50 (SR): 2.52 µM | CC50 (SR; read-out: LC50): > 100 µM | GI50 (K-562): 3.71 µM | CC50 (K-562): > 100 µM | GI50 (T-47D): 16.7 µM | CC50 (T-47D): > 100 µM | GI50 (KM12): 16.9 µM | CC50 (KM12): > 100 µM | GI50 (SK-MEL-2): 16.5 µM | CC50 (SK-MEL-2): 56 µM | GI50 (NCI-H522): 14 µM | CC50 (NCI-H522): 53.3 µM | GI50 (NCI-H460): 16.8 µM | CC50 (NCI-H460): 67.1 µM | GI50 (OVCAR-5): 15 µM | CC50 (OVCAR-5): 53.9 µM | GI50 (IGROV1): 3.08 µM | CC50 (IGROV1): 36.8 µM | GI50 (CCRF-CEM): 6.86 µM | CC50 (CCRF-CEM): > 100 µM | GI50 (MCF7): 2.37 µM | CC50 (MCF7): 34.6 µM | GI50 (SK-OV-3): 15.3 µM | CC50 (SK-OV-3): 59.5 µM | GI50 (TK-10): 15.8 µM | CC50 (TK-10): 54.7 µM | GI50 (OVCAR-8): 14.8 µM | CC50 (OVCAR-8): 54.5 µM | GI50 (HL-60(TB)): 14.7 µM | CC50 (HL-60(TB)): > 100 µM | GI50 (SN12C): 14.4 µM | CC50 (SN12C): 53.8 µM | GI50 (MALME-3M): 15.1 µM | CC50 (MALME-3M): 54.2 µM | GI50 (SW-620): 8.46 µM | CC50 (SW-620): 50.2 µM
